Experimental data reported in publication PMC12652692, “Synthesis and In Vitro Anticancer Evaluation of Novel Phosphonium Derivatives of Chrysin” (International Journal of Molecular Sciences, 2025).

Assays:
Assay in all cases: NCI60 five-dose screen
Type in all cases: cell-based
K-562 = conditions: Homo sapiens, K562; K-562, Leukemia
Description: (§1) Since all new conjugates (3a–h) had notable antiproliferative activities on several tumor cell lines in the course of the one-dose screening, they were subjected to a five-dose test. […] J. Mol. Sci. 2025, 26, 11063 10 of 10 S.3. NCI60 Screening A detailed description of the NCI screening procedures can also be found on the website of NCI [39], and in our previous work. S.3.1. One-Dose Screen All candidates were examined at first at a single high dose (10 μM) in the full NCI60 cell panel. The value reported for the one-dose test is growth relative to the no-drug control and relative to the time zero number of cells. This made possible the disclosure of both growth inhibition (numbers between 0 and 100) and lethality (numbers less than 0). For example, a value of 100 means no growth inhibition. A value of 20 would mean 80% growth inhibition. A value of 0 means no net growth over the course of the analysis. A value of −20 would mean 20% lethality. A value of −100 means all cells are dead. S.3.2. […] The human tumor cell lines of the cancer screening panel were grown in RPMI 1640 medium containing 5% fetal bovine serum and 2 mM l-glutamine. Characteristically, cells were injected in 96-well microtiter plates in 0.1 mL at plating densities ranging from 5000 to 40,000 cells/well, depending on the doubling time of individual cell lines. After cell inoculation, the microtiter plates were incubated at 37 °C, 5% carbon dioxide, 95% air, and 100% relative humidity for 24 hours before the addition of tested compounds. After 24 hours, 2 plates of each cell line were fixed in situ with Cl3COOH (TCA), to represent a measurement of the cell population for each cell line at the time of drug addition (tz). Tested compounds were solubilized in DMSO at 400-fold the desired final maximum test concentration and stored frozen before application. In the course of the drug addition, an aliquot of frozen concentrate was thawed and diluted to twice the desired final maximum test concentration with a complete medium containing 50 μg mL−1 gentamicin. Additional four, 10-fold or ½ log serial dilutions were produced to furnish a total of five drug concentrations plus control. Aliquots of 0.1 mL of these different drug dilutions were added to the appropriate microtiter wells already containing 0.1 mL of medium, resulting in the required final drug concentrations. Following drug addition, the plates were incubated at 37 °C, 5% carbon dioxide, 95% air, and 100% relative humidity for an additional 48 hours. For adherent cells, the test was finished by the addition of cold Cl3COOH. Cells were fixed in situ by the addition of 50 μL of cold 50% (w/v) Cl3COOH, and incubated at 4 °C for 1 hour. The supernatant was discarded, and the plates were washed with H2O (5×) and dried in air. Sulforhodamine B (SRB) solution (0.1 mL) at 0.4% (w/v) in 1% CH3COOH was added to each well, and plates were incubated at RT for 10 min. After staining, the unbound dye was removed by washing five times with 1% CH3COOH, and the plates were dried in the air. The bound stain is afterward solubilized with a 10 mM trizma base, and the absorbance is read on an automated plate reader at λ = 515 nm. Utilizing the seven absorbance measurements [time zero (tz), control growth (c), and test growth in the presence of the drug at the five concentration levels (ti)], the percentage growth was determined at each of the drug concentration levels. Growth inhibition (%) was calculated as: [(ti − tz)/(c − tz)] × 100, for concentrations where ti ≥ tz (1) [(ti − tz)/(tz)] × 100, for concentrations where ti < tz. (2) Three dose‒response parameters were calculated as follows. GI50 (growth inhibition of 50%) was determined from Equation (3), which is the drug concentration resulting in a 50% reduction in the net protein increase (as measured by SRB staining) in control cells in the course of the drug incubation. [(ti − tz)/(c − tz)] × 100 = 50 (3)

LOX IMVI = conditions: Homo sapiens, Melanoma
Description: as §1

RXF 393 = conditions: Homo sapiens; RXF 393, Renal Cancer
Description: as §1

KM12 = conditions: Homo sapiens; KM12, Colon Cancer
Description: as §1

SW-620 = conditions: Homo sapiens; SW-620, Colon Cancer
Description: as §1

COLO 205 = conditions: Homo sapiens; COLO 205, Colon Cancer
Description: as §1

HOP-92 = conditions: Homo sapiens; HOP-92, Non-small-Cell Lung Cancer
Description: as §1

NCI/ADR-RES = conditions: Homo sapiens, Ovarian Cancer
Description: as §1

OVCAR-4 = conditions: Homo sapiens; OVCAR-4, Ovarian Cancer
Description: as §1

UACC-62 = conditions: Homo sapiens; UACC-62, Melanoma
Description: as §1

OVCAR-8 = conditions: Homo sapiens; OVCAR-8, Ovarian Cancer
Description: as §1

IGROV1 = conditions: Homo sapiens, IGROV-1; IGROV1, Ovarian Cancer
Description: as §1

MCF7 = conditions: Homo sapiens; MCF7, Breast Cancer
Description: as §1

HOP-62 = conditions: Homo sapiens; HOP-62, Non-small-Cell Lung Cancer
Description: as §1

A549/ATCC = conditions: Homo sapiens, Non-small-Cell Lung Cancer
Description: as §1

SF-539 = conditions: Homo sapiens; SF-539, CNS Cancer
Description: as §1

SK-OV-3 = conditions: Homo sapiens; SK-OV-3, Ovarian Cancer
Description: as §1

SN12C = conditions: Homo sapiens, Renal Cancer
Description: as §1

BT-549 = conditions: Homo sapiens; BT-549, Breast Cancer
Description: as §1

HCT-116 = conditions: Homo sapiens; HCT-116, Colon Cancer
Description: as §1

T-47D = conditions: Homo sapiens, T47D, Breast Cancer
Description: as §1

SK-MEL-5 = conditions: Homo sapiens; SK-MEL-5, Melanoma
Description: as §1

SMILES | GI50 (K-562) [nM] | GI50 (LOX IMVI) [nM] | GI50 (RXF 393) [nM] | GI50 (KM12) [nM] | GI50 (SW-620) [nM] | GI50 (COLO 205) [nM] | GI50 (HOP-92) [nM] | GI50 (NCI/ADR-RES) [nM] | GI50 (OVCAR-4) [nM] | GI50 (UACC-62) [nM] | GI50 (OVCAR-8) [nM] | GI50 (IGROV1) [nM] | GI50 (MCF7) [nM] | GI50 (HOP-62) [nM] | GI50 (A549/ATCC) [nM] | GI50 (SF-539) [nM] | GI50 (SK-OV-3) [nM] | GI50 (SN12C) [nM] | GI50 (BT-549) [nM] | GI50 (HCT-116) [nM] | also measured
O=c1cc(-c2ccccc2)oc2cc(OCCCC[P+](c3ccccc3)(c3ccccc3)c3ccccc3)cc(O)c12 [3a] | 216 | 326 | 225 | 401 | 343 | 1020 | 234 | 3290 | 370 | 292 | 350 | 405 | 291 | 480 | 908 | 380 | 329 | 330 | 257 | 297 | GI50 (T-47D): 228 nM; GI50 (SK-MEL-5): 166 nM
Cc1ccc([P+](CCCCOc2cc(O)c3c(=O)cc(-c4ccccc4)oc3c2)(c2ccc(C)cc2)c2ccc(C)cc2)cc1 [3b] | 137 | 287 | 333 | 160 | 354 | 419 | 163 | 1180 | 247 | 344 | 337 | 416 | 268 | 307 | 393 | 498 | 301 | 389 | 344 | 248 | GI50 (T-47D): 105 nM; GI50 (SK-MEL-5): 153 nM
COc1ccc([P+](CCCCOc2cc(O)c3c(=O)cc(-c4ccccc4)oc3c2)(c2ccc(OC)cc2)c2ccc(OC)cc2)cc1 [3c] | 376 | 355 | 257 | 207 | 351 | 455 | 252 | 2600 | 382 | 317 | 408 | 413 | 407 | 732 | 600 | 410 | 382 | 317 | 349 | 337 | GI50 (T-47D): 302 nM; GI50 (SK-MEL-5): 331 nM
O=c1cc(-c2ccccc2)oc2cc(OCCCC[P+](c3ccc(F)cc3)(c3ccc(F)cc3)c3ccc(F)cc3)cc(O)c12 [3d] | 1400 | 1690 | 1820 | 1700 | 1460 | 1620 | 1320 | 15900 | 1640 | 2050 | 1840 | 1890 | 1620 | 1560 | 3210 | 1930 | 1620 | 2490 | 1610 | 1670 | GI50 (T-47D): 1450 nM; GI50 (SK-MEL-5): 1510 nM
